# System: Escherichia coli (E. coli)
# Test: Simple test for antimicrobial activity using E. coli based on JIS Z2801 (0.9% NaCl, fluorescent dye viability)
# Format: cell-based
# Conditions: Example 5, FIG. 8, Cu sample piece, 5 minutes after seeding
# Description: In this Example, effects of GSH, which is a biological reducing substance, on antimicrobial activity of copper and copper alloys were studied by a simple test for antimicrobial activity using E. coli based on the test for antimicrobial activity specified in JIS Z2801. As shown in FIG. 6(a), first, a copper (Cu) sample piece (15 mm square) was placed on the bottom surface of a glass container. Next, on the upper surface of the sample piece, 0.9% NaCl (−GSH) not containing GSH as a solvent or a 0.9% NaCl solution (+GSH) containing GSH at a concentration of 1.0 mM as a solvent was used to seed about 1.0×10^6 cells/50 μL of E. coli. This bacterial suspension was covered with a polyethylene (PE) sheet so as not to dry the bacterial suspension. Then, the glass container was placed under static culture condition of 35±1° C. The PE sheet was removed 0 minute (immediately after seeding), 5 minutes, and 10 minutes after seeding of E. coli, and 1 mL of 0.9% NaCl+0.1 mM EDTA-2Na was added to the bacterial suspension, and the bacterial suspension was collected by pipetting. A fluorescent dye was added to the collected bacterial suspension, and viability of E. coli was determined by measuring fluorescence intensity. In order to avoid a contact between the back surface of the Cu sample piece and the solution when collecting E. coli, the back surface of the Cu sample piece was coated with a thin silicone sheet in advance. […] GSH was added at a concentration of 0 mM (no addition), 1.0 mM, 2.0 mM, and 10.0 mM, and the results are shown in this order from the left. In FIG. 8, the longitudinal axis represents a ratio of bacterial viability (relative viability) normalized to the bacterial viability in the control test as 1. […] Note that the time from seeding of E. coli to collection of a bacterial suspension was set to 5 minutes.
smiles,measurement,setting,value
"N[C@@H](CCC(=O)N[C@@H](CS)C(=O)NCC(=O)O)C(=O)O [GSH, Reduced glutathione]",bacterial viability (relative viability),GSH 1.0 mM,decreased more than a case without GSH
same,bacterial viability (relative viability),GSH 2.0 mM,equivalent or greater than the result without GSH
same,bacterial viability (relative viability),GSH 10.0 mM,equivalent or greater than the result without GSH

# — patent US11535939B2, “Surface treatment method for copper or copper alloy, surface treatment liquid for sterilizing copper or copper alloy, and sterilization method using copper or copper alloy treated by said method” (NATIONAL INSTITUTE FOR MATERIALS SCIENCE, priority 2017, dated 2022)
